Experimental data published in PMC11392934 (Nature Communications, 2024).

How the values were obtained:
[1] = biological target: T1, MleS (Lactococcus lactis, UniProt Q48662); assay: initial H+ consumption rate by pH microelectrode; type: biochemical; settings: product inhibition; 5 mM L-malate, pH 7, 30 °C
T1 sequence (Q48662 1-540): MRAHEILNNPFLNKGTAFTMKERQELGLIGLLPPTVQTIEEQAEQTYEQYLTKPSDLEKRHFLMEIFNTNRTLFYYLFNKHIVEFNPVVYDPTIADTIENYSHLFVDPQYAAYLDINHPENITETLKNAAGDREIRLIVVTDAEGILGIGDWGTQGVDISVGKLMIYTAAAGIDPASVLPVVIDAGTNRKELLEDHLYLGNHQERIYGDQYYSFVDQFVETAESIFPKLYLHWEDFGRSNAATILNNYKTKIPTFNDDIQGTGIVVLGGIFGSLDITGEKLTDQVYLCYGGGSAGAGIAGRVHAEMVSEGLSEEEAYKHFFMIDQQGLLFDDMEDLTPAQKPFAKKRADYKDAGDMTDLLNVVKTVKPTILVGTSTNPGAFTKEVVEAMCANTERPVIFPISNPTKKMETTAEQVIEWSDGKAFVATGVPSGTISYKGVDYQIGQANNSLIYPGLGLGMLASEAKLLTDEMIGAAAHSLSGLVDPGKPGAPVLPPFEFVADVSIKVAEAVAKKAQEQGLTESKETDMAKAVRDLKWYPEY

[2] = biological target: T2, LacY (Escherichia coli, UniProt P02920); assay: inhibition of lactose-dependent NADPH production in MleP-LacY vesicles; type: biochemical; settings: 100 µM D-lactose, pH 7, 30 °C; competitive; coupled read-out
T2 sequence (P02920 1-417): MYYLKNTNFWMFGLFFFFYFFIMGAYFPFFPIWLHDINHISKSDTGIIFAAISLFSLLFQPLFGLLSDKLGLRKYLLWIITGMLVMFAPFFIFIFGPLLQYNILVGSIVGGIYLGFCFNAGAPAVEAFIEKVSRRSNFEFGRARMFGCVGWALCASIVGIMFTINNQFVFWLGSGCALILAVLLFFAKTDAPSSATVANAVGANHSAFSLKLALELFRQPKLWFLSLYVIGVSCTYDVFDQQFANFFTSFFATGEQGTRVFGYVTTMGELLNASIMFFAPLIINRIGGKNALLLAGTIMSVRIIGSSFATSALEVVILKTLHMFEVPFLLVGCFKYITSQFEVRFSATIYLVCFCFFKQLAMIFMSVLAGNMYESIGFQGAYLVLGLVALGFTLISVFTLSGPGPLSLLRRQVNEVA

SMILES	% reduction of initial rate at 25 mM [1]	effect at 20 mM [2]
C[C@H](O)C(=O)O [L-lactate]	50%	–
CS[C@@H]1O[C@H](CO)[C@H](O)[C@H](O)[C@H]1O [methyl-β-D-thiogalactoside]	–	methyl-β-D-thiogalactoside (TMG) and thiodigalactoside (TDG)
OC[C@H]1O[C@@H](S[C@@H]2O[C@H](CO)[C@H](O)[C@H](O)[C@H]2O)[C@H](O)[C@@H](O)[C@H]1O [thiodigalactoside]	–	NADPH fluorescence is reduced in the presence non-hydrolysable substrates
